Format in all cases: functional
The subject of experiment [1] is Fusarium oxysporum f. sp. vasinfectum. The experiment can be described thus: Antifungal activity against Fusarium oxysporum f. sp. vasinfectum assessed as percent inhibition at 100 ug/ml.
The next experiment relates to Pyricularia oryzae. The experiment can be described thus: Antifungal activity against Pyricularia oryzae assessed as percent inhibition at 100 ug/ml.
For a further experiment, the system named is Alternaria alternata. The experiment is described as follows: Antifungal activity against Alternaria alternata assessed as percent inhibition at 100 ug/ml.
The test system of a further experiment is Alternaria brassicae. The experiment can be described thus: Antifungal activity against Alternaria brassicae assessed as percent inhibition at 100 ug/ml.
The next experiment deals with Fusarium graminearum. The experiment can be described thus: Antifungal activity against Fusarium graminearum assessed as percent inhibition at 100 ug/ml.
In the next experiment the test system is Bipolaris sorokiniana. The experiment is described as follows: Antifungal activity against Bipolaris sorokiniana assessed as percent inhibition at 100 ug/ml.
Experiment [2] is described as follows: Antifungal activity against Fusarium oxysporum f. sp. cucumerinum assessed as percent inhibition at 100 ug/ml.

Results on 19 compounds are retold here after ChEMBL document CHEMBL1287778, “Antifungal agents. Part 5: synthesis and antifungal activities of aminoguanidine derivatives of N-arylsulfonyl-3-acylindoles” (2010).

With `C/C(=N\NC(=N)N)c1cn(S(=O)(=O)c2ccccc2)c2cccc(C)c12`, the inhibition at 100 µg/mL in experiment [1] is 64.9%; with Pyricularia oryzae, 79.6%; with Alternaria alternata it was 79.2%; with Alternaria brassicae, 52%; with Fusarium graminearum, 52.3%; in the experiment on Bipolaris sorokiniana, 82.3%. The inhibition in experiment [2] was 63.1%.

For the compound `Cc1ccc(S(=O)(=O)n2cc(/C=N/NC(=N)N)c3cc(C#N)ccc32)cc1`, the inhibition at 100 µg/mL is 13% in experiment [1]; 16.3% with Pyricularia oryzae; 15.2% in the experiment on Alternaria alternata; 10.4% with Alternaria brassicae; 13.3% in the experiment with Fusarium graminearum; 17% in the experiment with Bipolaris sorokiniana. In addition, the inhibition in experiment [2] is 6.55%.

In the case of `Cc1ccc(S(=O)(=O)n2cc(/C=N/NC(=N)N)c3c(C)cccc32)cc1`, the inhibition at 100 µg/mL is 41.6% in experiment [1]; 72.2% with Pyricularia oryzae; 70.8% in the experiment with Alternaria alternata; 49.1% in the experiment with Alternaria brassicae; 48.2% in the experiment with Fusarium graminearum; 72.6% in the experiment on Bipolaris sorokiniana. Further, the inhibition in experiment [2] was 44.7%.

Turning to `N#Cc1ccc2c(c1)c(/C=N/NC(=N)N)cn2S(=O)(=O)c1ccccc1`, the inhibition at 100 µg/mL in experiment [1] was found to be 14.1%; in the experiment on Pyricularia oryzae, 20.1%; in the experiment on Alternaria alternata, 23.4%; in the experiment with Alternaria brassicae, 9.09%; with Fusarium graminearum, 26%; with Bipolaris sorokiniana, 13.8%. For the same compound, the inhibition in experiment [2] turned out to be 11.1%.

As to `N=C(N)N/N=C/c1cn(S(=O)(=O)c2ccccc2)c2ccccc12`, the inhibition at 100 µg/mL was determined as 47.8% in experiment [1]; 57.8% in the experiment with Pyricularia oryzae; 61.5% in the experiment on Alternaria alternata; 38.8% in the experiment on Alternaria brassicae; 46.3% in the experiment with Fusarium graminearum; 66.5% in the experiment on Bipolaris sorokiniana. Besides, the inhibition in experiment [2] came to 33.7%.

Consider `CC/C(=N\NC(=N)N)c1cn(S(=O)(=O)c2ccccc2)c2ccccc12`, for which the inhibition at 100 µg/mL in experiment [1] was found to be 56.7%; in the experiment with Pyricularia oryzae, 75.6%; in the experiment with Alternaria alternata, 73.8%; with Alternaria brassicae it was 43.3%; in the experiment on Fusarium graminearum, 50.5%; in the experiment on Bipolaris sorokiniana it was 69.2%. In experiment [2], the inhibition is 48.4%.

Turning to `N=C(N)N/N=C/c1cn(S(=O)(=O)c2cccc([N+](=O)[O-])c2)c2ccccc12`, the inhibition at 100 µg/mL amounted to 28.6% in experiment [1]; 42.3% in the experiment on Pyricularia oryzae; 51.1% in the experiment on Alternaria alternata; 30% with Alternaria brassicae; 31.4% with Fusarium graminearum; 36.9% with Bipolaris sorokiniana. In addition, the inhibition in experiment [2] came out at 28%.

As for `C/C(=N\NC(=N)N)c1cn(S(=O)(=O)c2cccc([N+](=O)[O-])c2)c2cc(C)ccc12`, the inhibition at 100 µg/mL turned out to be 23.2% in experiment [1]; 50.7% in the experiment with Pyricularia oryzae; 50.6% in the experiment on Alternaria alternata; 33.3% in the experiment on Alternaria brassicae; 20.6% in the experiment with Fusarium graminearum; 37.6% with Bipolaris sorokiniana. Moreover, the inhibition in experiment [2] was determined as 34.9%.

On to `C/C(=N\NC(=N)N)c1cn(S(=O)(=O)c2ccc(C)cc2)c2ccccc12`, for which the inhibition at 100 µg/mL in experiment [1] stood at 58.3%; in the experiment with Pyricularia oryzae, 52.3%; in the experiment on Alternaria alternata, 62.9%; in the experiment with Alternaria brassicae, 37.9%; in the experiment with Fusarium graminearum it was 48.8%; in the experiment with Bipolaris sorokiniana, 58.4%. The inhibition in experiment [2] amounted to 37.2%.

As for `Cc1cc(O)no1` [HYMEXAZOL], the inhibition at 100 µg/mL in experiment [1] stood at 63.2%; in the experiment with Pyricularia oryzae it was 75.1%; in the experiment with Alternaria alternata, 70.8%; in the experiment with Alternaria brassicae, 58%; with Fusarium graminearum it was 68%; with Bipolaris sorokiniana, 61.9%. In addition, the inhibition in experiment [2] was 60%.

For the compound `Cc1ccc(S(=O)(=O)n2cc(/C=N/NC(=N)N)c3ccc(C)cc32)cc1`, the inhibition at 100 µg/mL worked out at 40.5% in experiment [1]; 58.2% in the experiment with Pyricularia oryzae; 59.2% in the experiment with Alternaria alternata; 30.9% with Alternaria brassicae; 39% with Fusarium graminearum; 46.2% in the experiment with Bipolaris sorokiniana. The inhibition in experiment [2] was 43.5%.

Regarding `CCCCC/C(=N\NC(=N)N)c1cn(S(=O)(=O)c2ccc(C)cc2)c2cc(C)ccc12`, the inhibition at 100 µg/mL in experiment [1] worked out at 33.3%; with Pyricularia oryzae it was 44.5%; in the experiment on Alternaria alternata, 54.7%; with Alternaria brassicae, 22.8%; in the experiment with Fusarium graminearum it was 28.5%; with Bipolaris sorokiniana, 50.5%. In addition, in experiment [2], the inhibition came to 39.8%.

Take `C/C(=N\NC(=N)N)c1cn(S(=O)(=O)c2ccc(C)cc2)c2cccc(C)c12`: the inhibition at 100 µg/mL was found to be 55.6% in experiment [1]; 84.8% in the experiment with Pyricularia oryzae; 83% in the experiment on Alternaria alternata; 56.9% with Alternaria brassicae; 46.6% in the experiment on Fusarium graminearum; 80.6% in the experiment with Bipolaris sorokiniana. Besides, the inhibition in experiment [2] stood at 57%.

As for `COc1ccc(S(=O)(=O)n2cc(/C(C)=N/NC(=N)N)c3ccc(C)cc32)cc1`, the inhibition at 100 µg/mL came out at 24.2% in experiment [1]; 43% in the experiment with Pyricularia oryzae; 42.5% with Alternaria alternata; 18.2% with Alternaria brassicae; 44.8% in the experiment with Fusarium graminearum; 35% in the experiment with Bipolaris sorokiniana. Moreover, in experiment [2], the inhibition came out at 25.8%.

Turning to `C/C(=N\NC(=N)N)c1cn(S(=O)(=O)c2ccccc2)c2ccccc12`, the inhibition at 100 µg/mL in experiment [1] amounted to 60%; with Pyricularia oryzae it was 74.3%; with Alternaria alternata, 73.5%; with Alternaria brassicae it was 40.2%; with Fusarium graminearum it was 37.8%; with Bipolaris sorokiniana, 75.3%. Further, in experiment [2], the inhibition came out at 49.7%.

On to `Cc1ccc(S(=O)(=O)n2cc(/C=N/NC(=N)N)c3ccccc32)cc1`, for which the inhibition at 100 µg/mL was 51.8% in experiment [1]; 56.7% with Pyricularia oryzae; 65.3% with Alternaria alternata; 34.9% with Alternaria brassicae; 44.1% in the experiment with Fusarium graminearum; 66% with Bipolaris sorokiniana. The inhibition in experiment [2] is 36.5%.

Consider `Cc1cccc2c1c(/C=N/NC(=N)N)cn2S(=O)(=O)c1ccccc1`, for which the inhibition at 100 µg/mL in experiment [1] was found to be 19.9%; in the experiment on Pyricularia oryzae it was 46.8%; in the experiment with Alternaria alternata, 42.5%; in the experiment with Alternaria brassicae, 21.1%; with Fusarium graminearum, 26%; in the experiment on Bipolaris sorokiniana, 36.9%. Besides, the inhibition in experiment [2] is 26.3%.

`CCCCC/C(=N\NC(=N)N)c1cn(S(=O)(=O)c2ccccc2)c2ccccc12`: the inhibition at 100 µg/mL in experiment [1] came to 30.7%; in the experiment on Pyricularia oryzae, 52%; in the experiment on Alternaria alternata, 60.6%; in the experiment on Alternaria brassicae, 30%; with Fusarium graminearum, 39.4%; in the experiment with Bipolaris sorokiniana, 50.2%. The inhibition in experiment [2] is 38.6%.

Take `Cc1ccc2c(/C=N/NC(=N)N)cn(S(=O)(=O)c3ccccc3)c2c1`: the inhibition at 100 µg/mL in experiment [1] is 40%; in the experiment on Pyricularia oryzae, 64.2%; with Alternaria alternata, 69.2%; in the experiment with Alternaria brassicae it was 48.4%; with Fusarium graminearum, 47.8%; in the experiment with Bipolaris sorokiniana, 59.5%. Moreover, the inhibition in experiment [2] was 41%.
